Some test systems named below: IGROV1 ovarian; MDA-MB-435; CCRF-CEM leukemia; SNB-19 CNS; MDA-MB-231 breast; HCT-116 colon; HT29 colon; OVCAR-4 ovarian; SF-268 CNS; OVCAR-3 ovarian.
What all share (test): NCI-60 cell line screen, 48 h

The structures appear in SMILES notation.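 Interpolation was linear, between the two tested concentrations surrounding the appropriate level; five concentrations were tested over 48 hours in 96-well plates. GI50 is the concentration that inhibits growth by half. TGI: concentration producing complete growth inhibition.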

Consider `CC(=O)Nc1ccc2c(c1)c(C1=C(c3cn(C)c4ccccc34)C(=O)NC1=O)cn2C`, for which the GI50 with IGROV1 ovarian was 16.4 µM; with MDA-MB-435 it was 0.198 µM; in the experiment with CCRF-CEM leukemia, 0.991 µM; with SNB-19 CNS, greater than 18.2 µM; in the experiment on MDA-MB-231 breast, 5 µM; in the experiment on HCT-116 colon it was 1.09 µM. Also, the GI50 in the experiment with HT29 colon is 0.925 µM; in the experiment with OVCAR-4 ovarian, 2.54 µM; in the experiment with SF-268 CNS, 1.41 µM; in the experiment on OVCAR-3 ovarian, 0.723 µM. For the same compound, the TGI in the experiment on IGROV1 ovarian, with MDA-MB-435, with CCRF-CEM leukemia, in the experiment on SNB-19 CNS, in the experiment with MDA-MB-231 breast and with HCT-116 colon was greater than 25 µM in each case. The TGI is greater than 25 µM in the experiment with HT29 colon, greater than 17.6 µM in the experiment on OVCAR-4 ovarian, greater than 25 µM in the experiment on SF-268 CNS and 2.16 µM in the experiment with OVCAR-3 ovarian.
`O=C(CCCCCCSc1nc(-c2ccccc2)cc(-c2ccc(Cl)cc2)n1)NO`: the GI50 with IGROV1 ovarian was 1.24 µM; in the experiment with MDA-MB-435, 2.24 µM; in the experiment on CCRF-CEM leukemia it was 0.629 µM; in the experiment with SNB-19 CNS, 2.63 µM; with MDA-MB-231 breast, 2.65 µM; with HCT-116 colon, 1.14 µM. Besides, the GI50 is 2.05 µM with HT29 colon, 2.52 µM with OVCAR-4 ovarian, 2.44 µM in the experiment on SF-268 CNS and 1.96 µM with OVCAR-3 ovarian. Further, the TGI with IGROV1 ovarian was found to be 6.5 µM; in the experiment with MDA-MB-435 it was 10.9 µM; in the experiment on CCRF-CEM leukemia, 6.49 µM; in the experiment with SNB-19 CNS it was 11.2 µM; with MDA-MB-231 breast, 8.96 µM; in the experiment on HCT-116 colon it was 12.4 µM. In addition, the TGI is 11.4 µM in the experiment with HT29 colon, 13.5 µM in the experiment on OVCAR-4 ovarian, 6.75 µM with SF-268 CNS and 6.86 µM in the experiment with OVCAR-3 ovarian.
Turning to `COc1ccc2c(c1)[nH]c(=O)c1c3cc(C)c(C)cc3cn21`, the GI50 with IGROV1 ovarian is less than 0.0188 µM; in the experiment on MDA-MB-435 it was less than 0.01 µM; with CCRF-CEM leukemia, less than 0.0149 µM; in the experiment on SNB-19 CNS, less than 0.0226 µM; in the experiment on MDA-MB-231 breast it was 0.0291 µM; in the experiment on HCT-116 colon, less than 0.01 µM. The GI50 in the experiment on HT29 colon was less than 0.01 µM; with OVCAR-4 ovarian, 0.032 µM; in the experiment on SF-268 CNS, less than 0.01 µM; in the experiment with OVCAR-3 ovarian, less than 0.01 µM. For the same compound, the TGI stood at 0.215 µM in the experiment on IGROV1 ovarian; 4.66 µM in the experiment on SNB-19 CNS; 1.53 µM in the experiment on MDA-MB-231 breast; 0.516 µM in the experiment with HCT-116 colon; 3.95 µM with OVCAR-4 ovarian; 1.45 µM in the experiment with SF-268 CNS. In the experiment on OVCAR-3 ovarian, this compound registered a TGI of less than 0.0143 µM.
`COc1cc(-c2nn(-c3ccc(NC(=O)c4ccc(Cl)c(Cl)c4)cc3)cc2-c2ccncc2)ccc1Cl`: the GI50 with IGROV1 ovarian was greater than 100 µM; in the experiment with MDA-MB-435, 7.14 µM; with CCRF-CEM leukemia, 4.56 µM; in the experiment with SNB-19 CNS, 26.7 µM; in the experiment on MDA-MB-231 breast, 3.66 µM; in the experiment with HCT-116 colon, 4.6 µM. Moreover, the GI50 is 2.9 µM with HT29 colon, 23.4 µM with OVCAR-4 ovarian, greater than 100 µM in the experiment on SF-268 CNS and greater than 100 µM in the experiment on OVCAR-3 ovarian. In addition, the TGI with IGROV1 ovarian, with MDA-MB-435, in the experiment on CCRF-CEM leukemia, in the experiment on SNB-19 CNS, in the experiment on MDA-MB-231 breast and in the experiment on HCT-116 colon was greater than 100 µM each time. Further, the TGI in the experiment with HT29 colon, in the experiment on OVCAR-4 ovarian, with SF-268 CNS and in the experiment with OVCAR-3 ovarian was greater than 100 µM throughout.
For the compound `Cc1ncc(CN=Cc2ccc(Cl)cc2)c(N)n1`, the TGI in the experiment with IGROV1 ovarian, with MDA-MB-435, in the experiment with CCRF-CEM leukemia, in the experiment on SNB-19 CNS, in the experiment on MDA-MB-231 breast and in the experiment with HCT-116 colon was greater than 100 µM throughout. The TGI with HT29 colon, in the experiment on OVCAR-4 ovarian, in the experiment on SF-268 CNS and in the experiment with OVCAR-3 ovarian was greater than 100 µM in each case.
With `COC(=O)N[C@H]1CCc2c(Br)c(OC)c(OC)c(OC)c2-c2ccc(SC)c(=O)cc21`, the GI50 in the experiment on IGROV1 ovarian, in the experiment with MDA-MB-435, in the experiment on CCRF-CEM leukemia, in the experiment with SNB-19 CNS, with MDA-MB-231 breast and in the experiment with HCT-116 colon was less than 0.01 µM in each case. In addition, the GI50 is less than 0.01 µM with HT29 colon, 0.152 µM in the experiment with OVCAR-4 ovarian, less than 0.01 µM in the experiment with SF-268 CNS and less than 0.01 µM in the experiment with OVCAR-3 ovarian. For the same compound, the TGI with IGROV1 ovarian is greater than 39.5 µM; with MDA-MB-435, less than 0.01 µM; in the experiment on CCRF-CEM leukemia, 24.9 µM; in the experiment on SNB-19 CNS, greater than 49.7 µM; with MDA-MB-231 breast, 14 µM; in the experiment on HCT-116 colon, 11.5 µM. The TGI in the experiment on HT29 colon is 18.8 µM; with OVCAR-4 ovarian, greater than 57 µM; in the experiment with SF-268 CNS it was 16.6 µM; in the experiment on OVCAR-3 ovarian, less than 0.01 µM.
Consider `O=C(CN1CCN(c2ncccn2)CC1)Nc1ccc(Cl)cc1C(=O)c1ccccc1Cl`, for which the GI50 with IGROV1 ovarian was 93.2 µM; in the experiment on MDA-MB-435, greater than 100 µM; in the experiment with CCRF-CEM leukemia, 83.5 µM; in the experiment with SNB-19 CNS, greater than 100 µM; in the experiment on MDA-MB-231 breast it was greater than 100 µM; with HCT-116 colon it was 78.7 µM. Moreover, the GI50 in the experiment with HT29 colon was 63.6 µM; in the experiment with OVCAR-4 ovarian, 43.9 µM; with SF-268 CNS it was greater than 100 µM; with OVCAR-3 ovarian it was greater than 100 µM. The TGI in the experiment with IGROV1 ovarian, in the experiment with MDA-MB-435, with CCRF-CEM leukemia, with SNB-19 CNS, with MDA-MB-231 breast and with HCT-116 colon was greater than 100 µM each time. For the same compound, the TGI with HT29 colon, in the experiment on OVCAR-4 ovarian, in the experiment on SF-268 CNS and with OVCAR-3 ovarian was greater than 100 µM throughout.
With `COc1cc(O)c([C@@H]2C[C@H](CCc3ccc(O)cc3)O[C@H](c3ccc(O)cc3)C2)c(O)c1C(=O)/C=C/c1ccc(O)cc1`, the GI50 with IGROV1 ovarian was 2.2 µM; with MDA-MB-435, 3.14 µM; with CCRF-CEM leukemia, 2.32 µM; in the experiment with SNB-19 CNS it was 3.37 µM; in the experiment on MDA-MB-231 breast, 2.5 µM; with HCT-116 colon it was 2.74 µM. Also, the GI50 in the experiment with HT29 colon was 3.31 µM; with OVCAR-4 ovarian, 3.8 µM; with SF-268 CNS, 2.86 µM; in the experiment with OVCAR-3 ovarian it was 2.69 µM. Besides, the TGI in the experiment on IGROV1 ovarian turned out to be 5.44 µM; with MDA-MB-435, 10.8 µM; in the experiment with CCRF-CEM leukemia, 7.36 µM; with SNB-19 CNS, 10.6 µM; with MDA-MB-231 breast, 6.23 µM; in the experiment on HCT-116 colon, 8.27 µM. Besides, the TGI was 10.2 µM in the experiment on HT29 colon, 29.5 µM in the experiment on OVCAR-4 ovarian, 24.4 µM with SF-268 CNS and 7.16 µM in the experiment with OVCAR-3 ovarian.
Regarding `COc1nc(N(C)O)nc(N(C)O)n1`, the GI50 with IGROV1 ovarian was 0.632 µM; in the experiment with MDA-MB-435 it was 3.76 µM; with CCRF-CEM leukemia it was 0.624 µM; in the experiment with SNB-19 CNS it was 2.38 µM; with MDA-MB-231 breast, 3.54 µM; in the experiment with HCT-116 colon it was 0.402 µM. The GI50 in the experiment with HT29 colon is 1.03 µM; in the experiment with OVCAR-4 ovarian, 2.33 µM; with SF-268 CNS it was 1.16 µM; with OVCAR-3 ovarian it was 0.794 µM. Also, the TGI was greater than 100 µM with IGROV1 ovarian; greater than 100 µM in the experiment on MDA-MB-435; greater than 100 µM in the experiment with CCRF-CEM leukemia; greater than 100 µM with SNB-19 CNS; greater than 100 µM in the experiment on MDA-MB-231 breast; 3.88 µM in the experiment with HCT-116 colon. Moreover, the TGI in the experiment on HT29 colon, in the experiment on OVCAR-4 ovarian, in the experiment on SF-268 CNS and in the experiment with OVCAR-3 ovarian was greater than 100 µM throughout.
Regarding `CCOc1cc2ncc(C#N)c(Nc3ccc(OCc4cccc(F)c4)c(Cl)c3)c2cc1NC(=O)CC1CCSS1` (configuration not stated), the GI50 was 0.578 µM in the experiment with IGROV1 ovarian; 0.596 µM with MDA-MB-435; 0.146 µM in the experiment on CCRF-CEM leukemia; greater than 25 µM in the experiment with SNB-19 CNS; 1.02 µM in the experiment on MDA-MB-231 breast; 0.431 µM in the experiment on HCT-116 colon. Besides, the GI50 in the experiment on HT29 colon is 0.907 µM; in the experiment with OVCAR-4 ovarian, 0.539 µM; in the experiment on SF-268 CNS it was 0.727 µM; with OVCAR-3 ovarian it was 1.09 µM. Further, the TGI is greater than 6.27 µM in the experiment with IGROV1 ovarian; 1.52 µM with MDA-MB-435; greater than 25 µM in the experiment on CCRF-CEM leukemia; greater than 25 µM in the experiment on SNB-19 CNS; greater than 25 µM with MDA-MB-231 breast; 1.07 µM with HCT-116 colon. For the same compound, the TGI is greater than 25 µM in the experiment with HT29 colon, 1.36 µM in the experiment with OVCAR-4 ovarian, 3.02 µM with SF-268 CNS and 9.3 µM in the experiment with OVCAR-3 ovarian.
As for `COc1cc(/C(C#N)=C/c2ccc3c(c2OC)OCO3)cc2c1OCO2`, the GI50 is 0.165 µM in the experiment with IGROV1 ovarian; 0.0209 µM in the experiment with MDA-MB-435; 0.0601 µM with CCRF-CEM leukemia; 0.236 µM with SNB-19 CNS; 0.753 µM in the experiment with MDA-MB-231 breast; 0.0492 µM in the experiment with HCT-116 colon. Besides, the GI50 with HT29 colon is 0.0379 µM; with OVCAR-4 ovarian, 1.45 µM; in the experiment with SF-268 CNS, 0.0969 µM; with OVCAR-3 ovarian it was 0.0272 µM. Besides, the TGI with IGROV1 ovarian is 42.3 µM; in the experiment on MDA-MB-435, 0.0664 µM; in the experiment on CCRF-CEM leukemia, 4.62 µM; in the experiment with SNB-19 CNS, 20.4 µM; with MDA-MB-231 breast, 19.4 µM; in the experiment with HCT-116 colon it was greater than 35.7 µM. Further, the TGI with HT29 colon was 1.04 µM; in the experiment with OVCAR-4 ovarian, greater than 100 µM; with SF-268 CNS, 15.8 µM; with OVCAR-3 ovarian, 0.0774 µM.

The record behind these values is PubChem BioAssay (NCI).
